Values of other authors in patent US8236331B2, “Cosmetic cooling composition” (Coty Deutschland GmbH, priority 2004, dated 2012).

Details: WO 03/007909, no period of time specified

In the case of `CCCCCCCCCCCCCCCC(=O)OC` [methyl palmitate], the “cooling effect as described” value is given as “long-lasting”.
